Values quoted from earlier work in patent US8309103B2, “Association of fluconazole-tinidazole for the treatment of vaginal infections, its composition, preparation process and usage” (Alparis, S.A. DE C.V., priority 2004, dated 2012).
Where two headings read alike, the source gives them in different places.

Key:
vaginal candidiasis = conditions: one dose of 150 mg; 1,017 patients with vaginal candidiasis
[1] = in vivo, po
[2] = system: Bacterial Vaginosis (Gardnerella vaginallis)
Trichomonas vaginalis = conditions: 2 grams in an only dose, sexual partner also involved

For `OC(Cn1cncn1)(Cn1cncn1)c1ccc(F)cc1F` [fluconazole], which “Patients in whom well received and effective” value (vaginal candidiasis) is on record?
The value was 91%.

What about the “Relationship between plasma and the vaginal tissue” value [1] of the same molecule?
The value was 0.94-1.1.

With `CCS(=O)(=O)CCn1c([N+](=O)[O-])cnc1C` [tinidazole] as the molecule, how does the Curative rate ([2]; an only dose of 2 g tinidazole) read?
The Curative rate was 92%.

What about the Curative rate ([2]; same amount (2 g) in a two-day scheme, other researchers) of the same molecule?
Its Curative rate is 51%.

With `Cc1ncc([N+](=O)[O-])n1CC(C)O` (centres unmarked) [secnidazole] as the molecule, how does the “Share of the dose taken excreted (essentially urinary)” value (in 120 hours) read?
Its value is 50%.

What about the Average plasmatic life (oral, one 2 g dose) of the same molecule?
The Average plasmatic life was “about 25 hours”.

What about the “Time at which the highest seric rates are obtained” value (oral, one 2 g dose) of the same molecule?
The value was “third”.

For `Cc1ncc([N+](=O)[O-])n1CCO` [metronidazole], which Efficacy (Trichomonas vaginalis) is on record?
The Efficacy was “up to 85%”.
